Columns and labels:
[1] = Compatibility test of API and auxiliary materials: relevant substances (impurities) by HPLC; format: physicochemical; settings: for Change of relevant substance (in words): 30 days
Protocol: 4. Using HPLC method to detect the content of the sample and relevant substances.
The parameters of the HPLC method for the detection of the content and relevant substances are detailed in Table 2 below.
(§1) Placing the samples under experimental conditions of high temperature (60° C.), high humidity (92.5% RH), acceleration (40° C./75% RH) and illumination (visible light 5500 Lux±500 Lux, near ultraviolet light 85 μw/cm2), […] Submitting the samples for relevant indicator testing (test items include appearance, hygroscopic weight gain, content and relevant substances), and comparing the test results with the control samples (raw material).

[2] = Compatibility test of API and auxiliary materials: hygroscopic weight gain; format: physicochemical; settings: opened
Excerpt: 3. Detecting the hygroscopic weight gain of the sample.
The commonly used auxiliary materials for oral solid preparations are selected to mix with TJ0113 raw material in different proportions, placed under different conditions, and taken out at different time points respectively to judge the compatibility of the raw and auxiliary materials by using appearance, hygroscopic weight gain, content and relevant substances as indicators. According to the auxiliary material manual, the auxiliary materials used are commonly used auxiliary materials for oral solid preparations, and have been included in the current edition of the Chinese Pharmacopoeia, each auxiliary material has a stable nature. In order to objectively evaluate the compatibility of raw material and auxiliary materials used, the compatibility test was conducted on the raw material and each auxiliary material.
The ratio of the raw and auxiliary materials is set according to the “Basic Technical Guidance Principles for Research on Chemical Drug Preparations” and the preparation specifications, the auxiliary materials with a larger amount (such as lactose, microcrystalline cellulose) are mixed according to the ratio of main drug:diluent=1:5; the auxiliary materials with a moderate amount (such as croscarmellose sodium) are mixed according to the ratio of main drug:disintegrant=1:1; the auxiliary materials with a smaller amount (such as magnesium stearate) are mixed according to the ratio of main drug:lubricant=10:1. The manufacturer information and the ratio of raw and auxiliary materials for the compatibility experiment are shown in Table 1 below:
as §1

Compound: O=C(O)C[S+]([O-])c1cc(NS(=O)(=O)c2ccc(Br)cc2)c2ccccc2c1O (stereo not shown) [API]
- % Impurities RRT1.20 ([1]; 60° C., opened, 30 d): 0.06%
- % Impurities RRT1.29 ([1]; 60° C., opened, 30 d): 0.18%
- % Impurities RRT1.33 ([1]; 60° C., opened, 30 d): 0.07%
- % Impurities RRT1.37 ([1]; 60° C., opened, 30 d): 0.06%
- % Impurities RRT1.41 ([1]; 60° C., opened, 30 d): <0.05%
- % Impurities RRT1.73 ([1]; 60° C., opened, 30 d): <0.05%
- % Impurities RRT1.74 ([1]; 60° C., opened, 30 d): 0.09%
- % Impurities Total ([1]; 60° C., opened, 30 d): 1.40%
- % Impurities RRT0.46 ([1]; 92.5% RH, opened, 0 d): <0.05%
- % Impurities RRT0.89 ([1]; 92.5% RH, opened, 0 d): 0.08%
- % Impurities RRT1.10 ([1]; 92.5% RH, opened, 0 d): <0.05%
- % Impurities RRT1.16 ([1]; 92.5% RH, opened, 0 d): 0.88%
- % Impurities RRT1.20 ([1]; 92.5% RH, opened, 0 d): 0.09%
- % Impurities RRT1.24 ([1]; 92.5% RH, opened, 0 d): <0.05%
- % Impurities RRT1.29 ([1]; 92.5% RH, opened, 0 d): 0.14%
- % Impurities RRT1.33 ([1]; 92.5% RH, opened, 0 d): 0.10%
- % Impurities RRT1.37 ([1]; 92.5% RH, opened, 0 d): 0.07%
- % Impurities RRT1.41 ([1]; 92.5% RH, opened, 0 d): <0.05%
- % Impurities RRT1.43 ([1]; 92.5% RH, opened, 0 d): <0.05%
- % Impurities RRT1.73 ([1]; 92.5% RH, opened, 0 d): <0.05%
- % Impurities RRT1.74 ([1]; 92.5% RH, opened, 0 d): 0.05%
- % Impurities Total ([1]; 92.5% RH, opened, 0 d): 1.41%
- % Impurities RRT0.37 ([1]; 92.5% RH, opened, 10 d): <0.05%
- % Impurities RRT0.46 ([1]; 92.5% RH, opened, 10 d): 0.10%
- % Impurities RRT0.89 ([1]; 92.5% RH, opened, 10 d): 0.14%
- % Impurities RRT1.10 ([1]; 92.5% RH, opened, 10 d): <0.05%
- % Impurities RRT1.16 ([1]; 92.5% RH, opened, 10 d): 1.63%
- % Impurities RRT1.20 ([1]; 92.5% RH, opened, 10 d): 0.07%
- % Impurities RRT1.21 ([1]; 92.5% RH, opened, 10 d): <0.05%
- % Impurities RRT1.24 ([1]; 92.5% RH, opened, 10 d): <0.05%
- % Impurities RRT1.29 ([1]; 92.5% RH, opened, 10 d): 0.12%
- % Impurities RRT1.33 ([1]; 92.5% RH, opened, 10 d): 0.08%
- % Impurities RRT1.37 ([1]; 92.5% RH, opened, 10 d): 0.07%
- % Impurities RRT1.41 ([1]; 92.5% RH, opened, 10 d): 0.10%
- % Impurities RRT1.43 ([1]; 92.5% RH, opened, 10 d): <0.05%
- % Impurities RRT1.54 ([1]; 92.5% RH, opened, 10 d): 0.06%
- % Impurities RRT1.64 ([1]; 92.5% RH, opened, 10 d): 0.13%
- % Impurities RRT1.70 ([1]; 92.5% RH, opened, 10 d): <0.05%
- % Impurities RRT1.73 ([1]; 92.5% RH, opened, 10 d): 0.41%
- % Impurities RRT1.74 ([1]; 92.5% RH, opened, 10 d): 0.08%
- % Impurities Total ([1]; 92.5% RH, opened, 10 d): 2.99%
- % Impurities RRT0.37 ([1]; 92.5% RH, opened, 30 d): <0.05%
- % Impurities RRT0.46 ([1]; 92.5% RH, opened, 30 d): 0.17%
- % Impurities RRT0.89 ([1]; 92.5% RH, opened, 30 d): 0.12%
- % Impurities RRT1.10 ([1]; 92.5% RH, opened, 30 d): <0.05%
- % Impurities RRT1.16 ([1]; 92.5% RH, opened, 30 d): 1.65%
- % Impurities RRT1.20 ([1]; 92.5% RH, opened, 30 d): 0.06%
- % Impurities RRT1.24 ([1]; 92.5% RH, opened, 30 d): 0.05%
- % Impurities RRT1.29 ([1]; 92.5% RH, opened, 30 d): 0.07%
- % Impurities RRT1.33 ([1]; 92.5% RH, opened, 30 d): 0.08%
- % Impurities RRT1.37 ([1]; 92.5% RH, opened, 30 d): 0.08%
- % Impurities RRT1.41 ([1]; 92.5% RH, opened, 30 d): 0.09%
- % Impurities RRT1.43 ([1]; 92.5% RH, opened, 30 d): 0.05%
- % Impurities RRT1.54 ([1]; 92.5% RH, opened, 30 d): <0.05%
- % Impurities RRT1.64 ([1]; 92.5% RH, opened, 30 d): 0.21%
- % Impurities RRT1.70 ([1]; 92.5% RH, opened, 30 d): 0.05%
- % Impurities RRT1.73 ([1]; 92.5% RH, opened, 30 d): 0.53%
- % Impurities RRT1.74 ([1]; 92.5% RH, opened, 30 d): 0.10%
- % Impurities Total ([1]; 92.5% RH, opened, 30 d): 3.31%
- % Impurities RRT0.46 ([1]; Illumination, opened, 0 d): <0.05%
- % Impurities RRT0.89 ([1]; Illumination, opened, 0 d): 0.08%
- % Impurities RRT1.16 ([1]; Illumination, opened, 0 d): 0.88%
- % Impurities RRT1.20 ([1]; Illumination, opened, 0 d): 0.09%
- % Impurities RRT1.29 ([1]; Illumination, opened, 0 d): 0.14%
- % Impurities RRT1.33 ([1]; Illumination, opened, 0 d): 0.10%
- % Impurities RRT1.37 ([1]; Illumination, opened, 0 d): 0.07%
- % Impurities RRT1.41 ([1]; Illumination, opened, 0 d): <0.05%
- % Impurities RRT1.73 ([1]; Illumination, opened, 0 d): <0.05%
- % Impurities RRT1.74 ([1]; Illumination, opened, 0 d): 0.05%
- % Impurities Total ([1]; Illumination, opened, 0 d): 1.41%
- % Impurities RRT0.46 ([1]; Illumination, opened, 10 d): 0.06%
- % Impurities RRT0.89 ([1]; Illumination, opened, 10 d): 0.17%
- % Impurities RRT1.16 ([1]; Illumination, opened, 10 d): 0.91%
- % Impurities RRT1.20 ([1]; Illumination, opened, 10 d): 0.08%
- % Impurities RRT1.29 ([1]; Illumination, opened, 10 d): 0.20%
- % Impurities RRT1.33 ([1]; Illumination, opened, 10 d): 0.09%
- % Impurities RRT1.37 ([1]; Illumination, opened, 10 d): 0.07%
- % Impurities RRT1.41 ([1]; Illumination, opened, 10 d): <0.05%
- % Impurities RRT1.73 ([1]; Illumination, opened, 10 d): 0.05%
- % Impurities RRT1.74 ([1]; Illumination, opened, 10 d): 0.07%
- % Impurities Total ([1]; Illumination, opened, 10 d): 1.70%
- Change of relevant substance (in words) ([1]; acceleration 40° C./75% RH, opened): increased significantly at RRT0.46, RRT1.16, RRT1.63 and RRT1.73, and increased slightly at RRT1.41 and RRT1.43
- Stability of API (summary) ([1]; compatibility test of raw and auxiliary materials): unstable under the conditions of high humidity, illumination and acceleration
- Change of relevant substance (in words) ([1]; high humidity 92.5% RH, opened): increased significantly at RRT0.46, RRT1.16, RRT1.64 and RRT1.73, and increased slightly at RRT1.41 and RRT1.74
- Change of relevant substance (in words) ([1]; illumination, opened): increased slightly at RRT 0.89 and RRT 1.29
- Hygroscopic weight gain ([2]; 40° C./75% RH, 10 d): −3.6
- Hygroscopic weight gain ([2]; 40° C./75% RH, 30 d): −4.2
- Hygroscopic weight gain ([2]; 92.5% RH, 10 d): 5.5

Source: US20260216108A1, “PHARMACEUTICAL COMPOSITION CONTAINING A MITOPHAGY INDUCER” (HANGZHOU PHECDAMED CO., LTD., priority 2023, published 2026)
